Measured values: patent US11447531B2, “Cleavable peptides and insecticidal and nematicidal proteins comprising same” (Vestaron Corporation, priority 2016, dated 2022)

Legend:
[1] = molecular target: T1, pepsin or simulated human gastric fluid (SGF) (Sus scrofa, UniProt P00791); type: biochemical
T1 construct: purchased Sigma P6887

[2] = tested on: gut enzymes of Southern Corn Rootworm; experiment: FRET peptide cleavage by coleopteran gut enzymes (COLEOP); conditions: for % of Max Slope: COLEOP (X); for COLEOP cleavage (in words): insect (COLEOP) simulated gut environment
[3] = tested on: gut enzymes of Corn Earworm; experiment: FRET peptide cleavage by lepidopteran gut enzymes (LEP); type: biochemical, Helicoverpa zea; conditions: for % of Max Slope: LEP (X); for LEP cleavage (in words): insect (LEP) simulated gut environment
Text: Corn Earworm insects were obtained commercially from Benzon Research (Carlisle, Pa.) as eggs. Hatched larvae were raised on artificial diet until ⅘^th instar (20 mm long) before guts were isolated. Before gut extract, larvae were anesthetized using CO2. The larva was then pinned on the dissection plate at both the head and the tail. Using dissection scissors, the cuticle was nicked. The dissection scissors were then inserted into the nick and the […] along the insect. The cuticle was then carefully pulled back and pinned open to reveal the digestive track. Using DI water, the insect was thoroughly rinsed to remove hemolymph. The gut was then excised with tweezers and placed in a solution of 500 μL of 200 mM Tris-HCl pH 8.1 150 mM NaCl (assay buffer). The tube was pre-weighed and post-weighed to calculate the total amount of gut added. CEW gut was diluted to a stock concentration of 7 mg/ml (10×) in 200 mM Tris-HCl pH 8.1 150 mM NaCl. This was diluted fresh each plate by 20× with the assay buffer.

[4] = tested on: insect and/or nematode protease (X condition); experiment: Round 2 and spacer FRET cleavage, X (insect) cleavage condition; type: biochemical; conditions: Round 2 FRET, X-Y combinations
Description: Round 2 data from FRET molecules that represented a subset of binary combinations based on the observed top hits in Round 1 provided a hierarchical ranking of the various binary combinations. Round 2 FRET molecules were synthesized, resuspended, and tested in cleavage enzyme assays as described above in Round 1. Many combinations of binary cleavable linking peptides were tested against LEP, COLEOP and SGF conditions.
Data from the Round 2 FRET that exemplifies the combination of both X and Y cleavability in a binary or tertiary peptide are presented in Table 6.
To screen for potential spacers, FRET peptides were ordered as the binary peptide ALKLFVZ1Z2 and varied amino acids in positions Z1 and Z2. Some of the amino acids were screened as individuals and some were screened as pools. The peptides were re-suspended using 50% acetonitrile in water at a concentration of 2 μM of each peptide. For the one containing more than one FRET peptide, they were re-suspended so that each peptide was as 2 μM (assuming an equal portion of each one). These were then re-suspended and screened as described above for Round 1. The data does confirm that some amino acids in the Z position are more favorable than others. […] The greater the value of the slope in Table 7 the greater the activity of the amino acid when part of a spacer. The column in Table 7 labeled “Slope” indicates the speed of cleavage of the Linker.

[5] = pooled FRET screening Round 1, slope of fluorescence over 10 minutes, steepest slope = 100%, representative cleavable sequences
[6] = pooled FRET screening, failed cleavable sequences

T1 sequence (P00791 60-385): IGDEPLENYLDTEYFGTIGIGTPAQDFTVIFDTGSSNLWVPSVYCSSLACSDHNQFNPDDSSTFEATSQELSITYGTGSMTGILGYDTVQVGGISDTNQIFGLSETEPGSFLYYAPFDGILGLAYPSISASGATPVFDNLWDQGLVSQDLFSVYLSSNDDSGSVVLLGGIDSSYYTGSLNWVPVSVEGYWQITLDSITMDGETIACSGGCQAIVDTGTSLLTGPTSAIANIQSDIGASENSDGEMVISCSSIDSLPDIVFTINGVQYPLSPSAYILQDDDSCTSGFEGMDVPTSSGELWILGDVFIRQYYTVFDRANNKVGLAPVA

## AAPF [reference compound]
[1]
  cleavability by human gastrointestinal proteases: neither FRET nor protein showed any cleavability

## AFF
[1]
  % of Max Slope: 63%

## AFY
[1]
  % of Max Slope: 63%

## AIF
[1]
  % of Max Slope: 78%

## AIK
[2]; [5]
  % of Max Slope: 70%

## AIR
[2]; [5]
  % of Max Slope: 70%

## AKF
[3]; [5]
  % of Max Slope: 93%

## AKS
[3]; [5]
  % of Max Slope: 90%

## AKT
[3]; [5]
  % of Max Slope: 90%

## AKY
[3]; [5]
  % of Max Slope: 93%

## ALF
[1]
  % of Max Slope: 78%

## ALK
[2]; [5]
  % of Max Slope: 70%

## ALKLFV (cleavable linker)
[1]
  SGF cleavage (in words): rapid
[3]
  LEP cleavage (in words): rapid
[2]
  COLEOP cleavage (in words): rapid

## ALR
[2]; [5]
  % of Max Slope: 70%

## ALY
[1]
  % of Max Slope: 78%

## ARF
[3]; [5]
  % of Max Slope: 93%

## ARS
[3]; [5]
  % of Max Slope: 90%

## ART
[3]; [5]
  % of Max Slope: 90%

## ARY
[3]; [5]
  % of Max Slope: 93%

## AYF
[1]
  % of Max Slope: 63%

## DFF
[1]
  % of Max Slope: 66%

## DFY
[1]
  % of Max Slope: 66%

## DYF
[1]
  % of Max Slope: 66%

## EFF
[1]
  % of Max Slope: 66%

## EFY
[1]
  % of Max Slope: 66%

## EYF
[1]
  % of Max Slope: 66%

## FFA
[1]
  % of Max Slope: 84%

## FFI
[1]
  % of Max Slope: 78%

## FFL
[1]
  % of Max Slope: 78%

## FFV
[1]
  % of Max Slope: 84%

## FYA
[1]
  % of Max Slope: 84%

## FYI
[1]
  % of Max Slope: 78%

## FYL
[1]
  % of Max Slope: 78%

## FYV
[1]
  % of Max Slope: 84%

## IFA
[1]
  % of Max Slope: 65%

## IFV
[1]
  % of Max Slope: 65%

## IFVALKGS (cleavable linker)
[1]
  % of Max Slope, Y: 88%
[4]
  % of Max Slope, X: 69%

## IFVRLR (cleavable linker)
[1]
  SGF cleavage (in words): rapid
[3]
  LEP cleavage (in words): rapid
[2]
  COLEOP cleavage (in words): rapid

## IIF
[1]
  % of Max Slope: 63%

## IKA
[2]; [5]
  % of Max Slope: 56%

## IKN
[2]; [5]
  % of Max Slope: 100%
[2]; [6]
  % of Max Slope: 0%

## IKQ
[2]; [5]
  % of Max Slope: 100%
[2]; [6]
  % of Max Slope: 0%

## IKS
[2]; [5]
  % of Max Slope: 68%

## IKT
[2]; [5]
  % of Max Slope: 68%

## IKV
[2]; [5]
  % of Max Slope: 56%

## ILF
[1]
  % of Max Slope: 63%

## ILY
[1]
  % of Max Slope: 63%

## INK
[2]; [5]
  % of Max Slope: 56%

## INR
[2]; [5]
  % of Max Slope: 56%

## IQK
[2]; [5]
  % of Max Slope: 56%

## IQR
[2]; [5]
  % of Max Slope: 56%

## IRN
[2]; [5]
  % of Max Slope: 100%
[2]; [6]
  % of Max Slope: 0%

## IRQ
[2]; [5]
  % of Max Slope: 100%
[2]; [6]
  % of Max Slope: 0%

## IRS
[2]; [5]
  % of Max Slope: 68%

## IRT
[2]; [5]
  % of Max Slope: 68%

## ISK
[3]; [5]
  % of Max Slope: 89%

## ISR
[3]; [5]
  % of Max Slope: 89%

## ITK
[3]; [5]
  % of Max Slope: 89%

## ITR
[3]; [5]
  % of Max Slope: 89%

## KIK
[2]; [5]
  % of Max Slope: 83%

## KIR
[2]; [5]
  % of Max Slope: 83%

## KKF
[3]; [5]
  % of Max Slope: 92%

## KKS
[3]; [5]
  % of Max Slope: 93%

## KKT
[3]; [5]
  % of Max Slope: 93%

## KKY
[3]; [5]
  % of Max Slope: 92%

## KLK
[2]; [5]
  % of Max Slope: 83%

## KLR
[2]; [5]
  % of Max Slope: 83%

## KRF
[3]; [5]
  % of Max Slope: 92%

## KRS
[3]; [5]
  % of Max Slope: 93%

## KRT
[3]; [5]
  % of Max Slope: 93%

## KRY
[3]; [5]
  % of Max Slope: 92%

## KSK
[3]; [5]
  % of Max Slope: 90%

## KSR
[3]; [5]
  % of Max Slope: 90%

## KTK
[3]; [5]
  % of Max Slope: 90%

## KTR
[3]; [5]
  % of Max Slope: 90%

## LFA
[1]
  % of Max Slope: 65%

## LFV
[1]
  % of Max Slope: 65%

## LIF
[1]
  % of Max Slope: 63%

## LIY
[1]
  % of Max Slope: 63%

## LKN
[2]; [5]
  % of Max Slope: 100%
[2]; [6]
  % of Max Slope: −2%

## LKQ
[2]; [5]
  % of Max Slope: 100%

## LKS
[2]; [5]
  % of Max Slope: 68%

## LKT
[2]; [5]
  % of Max Slope: 68%

## LLF
[1]
  % of Max Slope: 63%

## LNK
[2]; [5]
  % of Max Slope: 56%

## LNR
[2]; [5]
  % of Max Slope: 56%

## LQK
[2]; [5]
  % of Max Slope: 56%

## LQR
[2]; [5]
  % of Max Slope: 56%

## LRN
[2]; [5]
  % of Max Slope: 100%

## LRQ
[2]; [5]
  % of Max Slope: 100%

## LRS
[2]; [5]
  % of Max Slope: 68%

## LRT
[2]; [5]
  % of Max Slope: 68%

## LSK
[3]; [5]
  % of Max Slope: 89%

## LTR
[3]; [5]
  % of Max Slope: 89%

## LYA
[1]
  % of Max Slope: 65%

## LYF
[1]
  % of Max Slope: 100%

## LYV
[1]
  % of Max Slope: 65%

## LYY
[1]
  % of Max Slope: 100%

## NIK
[2]; [5]
  % of Max Slope: 74%

## NIR
[2]; [5]
  % of Max Slope: 74%

## NLK
[2]; [5]
  % of Max Slope: 74%

## NLR
[2]; [5]
  % of Max Slope: 74%

## PKK
[3]; [5]
  % of Max Slope: 100%
[3]; [6]
  % of Max Slope: 0%

## PKR
[3]; [5]
  % of Max Slope: 100%
[3]; [6]
  % of Max Slope: 0%

## PRK
[3]; [5]
  % of Max Slope: 100%
[3]; [6]
  % of Max Slope: 0%

## PRR
[3]; [5]
  % of Max Slope: 100%
[3]; [6]
  % of Max Slope: 0%

## QIK
[2]; [5]
  % of Max Slope: 74%

## QIR
[2]; [5]
  % of Max Slope: 74%

## QLK
[2]; [5]
  % of Max Slope: 74%

## QLR
[2]; [5]
  % of Max Slope: 74%

## RIK
[2]; [5]
  % of Max Slope: 83%

## RIR
[2]; [5]
  % of Max Slope: 83%

## RKF
[3]; [5]
  % of Max Slope: 92%

## RKS
[3]; [5]
  % of Max Slope: 93%

## RKT
[3]; [5]
  % of Max Slope: 93%

## RKY
[3]; [5]
  % of Max Slope: 92%

## RLK
[2]; [5]
  % of Max Slope: 83%

## RLR
[2]; [5]
  % of Max Slope: 83%

## RRF
[3]; [5]
  % of Max Slope: 92%

## RRS
[3]; [5]
  % of Max Slope: 93%

## RRT
[3]; [5]
  % of Max Slope: 93%

## RRY
[3]; [5]
  % of Max Slope: 92%

## RSK
[3]; [5]
  % of Max Slope: 90%

## RSR
[3]; [5]
  % of Max Slope: 90%

## RTK
[3]; [5]
  % of Max Slope: 90%

## RTR
[3]; [5]
  % of Max Slope: 90%

## VFF
[1]
  % of Max Slope: 63%

## VFY
[1]
  % of Max Slope: 63%

## VIF
[1]
  % of Max Slope: 78%

## VIK
[2]; [5]
  % of Max Slope: 70%

## VIR
[2]; [5]
  % of Max Slope: 70%

## VKF
[3]; [5]
  % of Max Slope: 93%

## VKS
[3]; [5]
  % of Max Slope: 90%

## VKT
[3]; [5]
  % of Max Slope: 90%

## VKY
[3]; [5]
  % of Max Slope: 93%

## VLF
[1]
  % of Max Slope: 78%

## VLK
[2]; [5]
  % of Max Slope: 70%

## VLR
[2]; [5]
  % of Max Slope: 70%

## VLY
[1]
  % of Max Slope: 78%

## VRF
[3]; [5]
  % of Max Slope: 93%

## VRS
[3]; [5]
  % of Max Slope: 90%

## VRT
[3]; [5]
  % of Max Slope: 90%

## VRY
[3]; [5]
  % of Max Slope: 93%
[3]; [6]
  % of Max Slope: 0%

## VYF
[1]
  % of Max Slope: 63%

## YFA
[1]
  % of Max Slope: 84%

## YFI
[1]
  % of Max Slope: 78%

## YFL
[1]
  % of Max Slope: 78%

## YFV
[1]
  % of Max Slope: 84%

## YYL
[1]
  % of Max Slope: 78%
